# Measurements reported in US20250129146A1, “COMBINED CANCER THERAPY WITH AN EPITHELIAL CELL ADHESION MOLECULE (EPCAM) INHIBITOR AND A WNT INHIBITOR” (ACADEMIA SINICA, priority 2021, published 2025).
# “Also recorded” adds a separate entry of the source.
# Assays:
# HCT116 cells [1] = test: Orthotopic animal model of human CRC (HCT116 cells with luciferase in cecum wall); format: in vivo, NOD/SCID mice
# Description: (§1) All animal experiments were approved and performed according to the regulations from the IACUC at Academia Sinica. HCT116 cells (1×10^6) were injected via tail vein for the metastatic model. Otherwise, 2×10^5 HCT116 cells with luciferase were surgically transplanted into the cecum wall for the orthotopic model. Male NOD/SCID mice, approximately 6 to 8 weeks old, were used for animal experiments (n=5 and n=6 for each treatment group in metastatic and orthotopic models respectively). At 72-h post-injection/transplantation, mice were randomly distributed into four different treatment groups. For the treatments, animals were injected with 20 mg/kg IgG or EpAb2-6 via tail vein twice a week for four weeks, or fed by oral gavage with either vehicle [0.5% methylcellulose (Sigma-Aldrich) and 0.5% Tween80 (Sigma-Aldrich)] or 5 mg/kg LGK974 (MedChemExpress) formulated with the vehicle on alternating days for four weeks, or animals were treated with the combination of both inhibitor and antibody. For the metastatic model, survival was the main endpoint. For the orthotopic model, tumor progression was monitor using bioluminescence imaging. To image the tumors, intraperitoneal injection of D-Luciferin (GOLD BIO) was performed, and images were taken 10 min post-injection.
# LRP5/6 = test: Phosphorylation of LRP5/6 (western blot); format: cell-based, human; settings: SW620 cells; LGK974, EpAb2-6 or combined treatment
# Description: (§2) For western blotting, cells were extracted using radioimmunoprecipitation assay (RIPA) buffer [(0.01 M sodium phosphate, pH 7.2), 150 mM NaCl, 2 mM EDTA, 50 mM NaF, 1% Nonidet P-40, 1% sodium deoxycholate, and 0.1% SDS)] containing phosphatase inhibitor (Roche) and protease inhibitor (Roche) cocktail. Equal amounts of protein were separated by SDS-PAGE and then transferred to PVDF membranes. The membranes were blocked with 3% BSA in TBST (Blocking solution) and incubated with necessary primary antibodies in the blocking solution overnight at 4° C. Membranes were then incubated with HRP-conjugated secondary antibodies in the blocking solution for 1 h at room temperature, and protein expression were detected. Antibodies used: anti-α-tubulin (Sigma), anti-EpCAM (abeam), anti-Active β-Catenin (Millipore), anti-total β-Catenin (abeam), anti-Frizzled 6 (CST), anti-Frizzled 7 (Santa Cruz Biotech), anti-LRP5 (abcam), anti-Phospho-LRP5 (abcam), anti-Phospho-LRP6 (CST), anti-LRP6 (CST) and anti-EpEX antibody EpAb3-5 (Produced in house), anti-ADAM17 (abcam), anti-phopho-ADAM17 (abcam), anti-Presenilin2 (abcam), anti-phospho-Presenilin2 (S327) (abcam), anti-phospho-Presenilin2 (S330) (abcam) and anti-Axin2 (CST).
# HCT116 cells [2] = test: Metastatic animal model of human CRC (HCT116 cells via tail vein); format: in vivo, NOD/SCID mice
# Description: as §1
# [3] = tested on: colon cancer cells (SW620, HCT116); test: Annexin-V/PI apoptosis assay; format: cell-based, human; settings: SW620 and HCT116 cells; 20 μg/mL EpAb2-6, LGK974 or the combination for 24 hrs
# Description: Cells were seeded in 24-well plate ([…] cells per well) overnight and then treated with 20 μg/mL mEpAb2-6, hEpAb2-6 or MT201, or […] LGK974 (MedChemExpress) or the combination for 24 hrs. Cell pellets were collected, and an apoptosis assay was performed using an Annexin-V/PI apoptosis kit (BD Biosciences). Results were read by flow cytometry analysis percentage apoptotic cells was calculated.
# [4] = dose of 5 mg/kg body weight; cited from earlier work
# HT29 and SW620 cells = test: Colony formation assay; format: cell-based, human
# Description: Cells were seeded in 12-well plate (5×10^3 cells per well) and treated with 20 µg/mL mEpAb2-6, hEpAb2-6 or MT201 (Produced in house) or 400 ng/mL LGK974 (MedChemExpress) or combination as indicated in which case the elements were directly added to the culture medium. The medium along with the treatment component were changed in every alternating day and the cells were allowed to grow for 10 days. On the tenth day, cells were washed and fixed with 4% paraformaldehyde and further stained with 1% crystal violet for 30 min. Colonies were washed 3 times with PBS, and images were taken. Furthermore, to measure colony density, the wells were incubated with 0.5% SDS shaking for 2 h at RT. The supernatants were collected, and the absorbance of the solution was taken at 570 nm using a microplate reader.
# [5] = tested on: HCT116, HT29 and SW620 cells; test: Tumorsphere assay; format: cell-based, human
# Description: Cells were seeded in ultra-low adherent 6-well plates (5×10^4 cells per well) or 24-well plates (1×10^3 cells per well) and maintained in DMEM/F-12 supplemented with B27. Further, cells were treated with 20 μg/mL mEpAb2-6, hEpAb2-6 or MT201 (Produced in house), or 400 ng/mL LGK974 (MedChemExpress) or the combination, by direct addition to the culture medium. The entire culture medium, including the treatment component, was changed in every other day. Cells were cultured for 10 days, and on 10th day, spheres were counted and photographed under the microscope.
# Oct4, Sox2 and c-Myc = test: Stemness (pluripotency) factor expression (western blot, qPCR); format: cell-based, human; settings: HT29 cells; LGK974, EpAb2-6 or combined treatment
# Description: as §2
# (§3) Total RNA was extracted using TRI reagent and 5 μg of the total RNA was further reverse-transcribed using oligo (dT) primer with reverse transcriptase. Quantitative real time RT-PCR (qPCR) was performed on cDNA using the Light Cycler 480 SYBR Green-I Master kit and the LightCycler480 System. The gene expression levels of each sample were normalized to the expression levels of glyceraldehyde 3-phosphate dehydrogenase (GAPDH) or β-actin.
# [6] = tested on: Wnt receptors (FZD6/7, LRP5/6); test: Wnt receptor protein and mRNA expression (western blot, qPCR); format: cell-based, human; settings: HCT116 cells; EpAb2-6, LGK974 or combination
# Description: as §2, §3
# active β-Catenin = test: Nuclear translocation of β-Catenin (immunofluorescence staining; cell fractionation with western blot); format: cell-based, human; settings: wild-type HCT116 cells; 20 μg/mL EpAb2-6 for 6 h, 400 ng/mL LGK974 for 9 h or combination
# Description: Cells (1×10^6) were seeded overnight and further allowed to grow in serum free conditions. Then cells were further treated with 20 μg/mL mEpAb2-6 or hEpAb2-6 or MT201 for 6 h or with 400 ng/mL LGK974 (MedChemExpress) for 9 h or combination as indicated. Samples were fractioned into cytosol and nuclear extracts using nuclear/cytosol fractionation kit (Biovision) according to the manufacturer's protocol. The fractions were then subjected to western blot analysis.
# as §2
# Glass slides were used in 24-well plates and coated with 0.1% gelatin. Further, 3×10^4 cells were seeded in serum free medium overnight. Cells were treated with 20 μg/mL EpAb2-6 for 6 h, or 400 ng/mL LGK974 (MedChemExpress) for 9 h or the combination. Cells were washed using ice-cold PBS and fixed with 4% paraformaldehyde for 15 min at RT and washed with ice-cold PBS. Further, cells were permeabilized using 0.1% triton-X in PBS for 20 min and subsequently washed with PBS. Cells were blocked with 3% BSA in PBS for 1 h at RT. Next, cells were treated with primary antibody anti-Active β-Catenin (Millipore) overnight. Then, cells were washed and treated with secondary antibody in 3% BSA containing PBS along with DAPI for 1 h at RT. Samples were then washed in PBS five times and mounted for microscopy. Nuclear β-Catenin intensities were calculated using IMARIS (Oxford Instruments) software.
# [7] = EpCAM-knockout cells, exogenous EpEX, LGK974 or both
smiles,measurement,setting,value
"Cc1cc(-c2ncc(CC(=O)Nc3ccc(-c4cnccn4)cn3)cc2C)ccn1 [LGK974, 2-(2′,3-dimethyl-[2,4′-bipyridin]-5-yl)-N-(5-(pyrazin-2-yl)pyridin-2-yl)acetamide, reference compound]",body weight after cessation of treatment,HCT116 cells [1]; orthotopic model,continued to lose body weight
same,median / overall survival,HCT116 cells [1]; orthotopic model,low median survival
same,body weight during the treatment period,"HCT116 cells [1]; orthotopic model, 5 mg/kg LGK974",decreased during the treatment period
same,tumor progression (bioluminescence),"HCT116 cells [1]; orthotopic model, 20 mg/kg EpAb2-6 via tail vein twice a week, 5 mg/kg LGK974 oral gavage on alternating days, four weeks",developed significant tumors
same,tumor (cancer) progression in animal models,"HCT116 cells [1]; summary statement, metastatic and orthotopic animal models of human CRC",did not observe significant effects
same,LRP5/6 phosphorylation,LRP5/6,could decrease LRP5/6 phosphorylation
same,animal survival,"HCT116 cells [2]; 20 mg/kg EpAb2-6 via tail vein twice a week, 5 mg/kg LGK974 oral gavage on alternating days, four weeks",decreased overall survival
same,distant metastases,HCT116 cells [2]; autopsies,distinct metastases; also recorded: found to have distant metastases
same,induction of apoptosis,[3],did not observe significant effects
same,toxicity,[4],non-toxic
same,colony formation,HT29 and SW620 cells; [7],complete loss of ability to form spheres or colonies
same,colony formation,"HT29 and SW620 cells; HT29 cells, 20 µg/mL EpAb2-6, 400 ng/mL LGK974 or combination, 10 days",decreased
same,tumorsphere formation,[5]; [7],complete loss of ability to form spheres or colonies
same,tumorsphere formation,"[5]; HCT116 and HT29 cells, 20 μg/mL EpAb2-6, 400 ng/mL LGK974 or combination, 10 days",decreased
same,cancer stemness properties,"[5]; summary statement, CRC cells, tumorsphere and colony formation",partially attenuate cancer sternness properties
same,expression of pluripotency factors,"Oct4, Sox2 and c-Myc",decreased pluripotency factor expressions
same,expression of Wnt receptors,[6],partially decrease
same,nuclear β-Catenin,active β-Catenin,decreased nuclear D3-Catenin but did not completely clear the protein from the nucleus
